Results as given in ChEMBL document CHEMBL4680148, “Semisynthesis and biological evaluation of amidochelocardin derivatives as broad-spectrum antibiotics” (Eur J Med Chem, 2020).
Values after ≈ are worked out from the molar mass of the structure shown.

Key:
Escherichia coli [1] = experiment: Antibacterial activity against Escherichia coli assessed as minimum inhibitory concentration required for inhibition of bacterial growth in presence of outer membrane permeabilizer PMBN measured after 18 hrs by microdilution method; assay type: functional
Escherichia coli [2] = experiment: Antibacterial activity against Escherichia coli assessed as minimum inhibitory concentration required for inhibition of bacterial growth measured after 18 hrs by microdilution method; assay type: functional
Klebsiella pneumoniae [3] = experiment: Antibacterial activity against Klebsiella pneumoniae DSM-30104 assessed as minimum inhibitory concentration required for inhibition of bacterial growth measured after 18 hrs by microdilution method; assay type: functional
Pseudomonas aeruginosa [4] = experiment: Antibacterial activity against Pseudomonas aeruginosa PA14 assessed as minimum inhibitory concentration required for inhibition of bacterial growth measured after 18 hrs by microdilution method; assay type: functional
Staphylococcus aureus [5] = experiment: Antibacterial activity against Staphylococcus aureus DSM-11822 assessed as minimum inhibitory concentration required for inhibition of bacterial growth measured after 18 hrs by microdilution method; assay type: functional
Enterococcus faecium = experiment: Antibacterial activity against Enterococcus faecium DSM-20477 assessed as minimum inhibitory concentration required for inhibition of bacterial growth measured after 18 hrs by microdilution method; assay type: functional
Pseudomonas aeruginosa [6] = experiment: Antibacterial activity against Pseudomonas aeruginosa PA14 delta mexAB assessed as minimum inhibitory concentration required for inhibition of bacterial growth measured after 18 hrs by microdilution method; assay type: functional
Staphylococcus aureus [7] = experiment: Antibacterial activity against Staphylococcus aureus Newman assessed as minimum inhibitory concentration required for inhibition of bacterial growth measured after 18 hrs by microdilution method; assay type: functional
[8] = Stability of the compound in Escherichia coli assessed as intact compound by LC-MS analysis; assay type: ADME
[9] = Stability of the compound in Escherichia coli growth medium assessed as intact compound by LC-MS analysis; assay type: physicochemical
Pseudomonas aeruginosa [10] = experiment: Antibacterial activity against Pseudomonas aeruginosa PA14 delta mexAB assessed as minimum inhibitory concentration required for inhibition of bacterial growth in presence of outer membrane permeabilizer PMBN measured after 18 hrs by microdilution method; assay type: functional
Escherichia coli [11] = experiment: Antibacterial activity against Escherichia coli DSM-1116 assessed as minimum inhibitory concentration required for inhibition of bacterial growth measured after 18 hrs by microdilution method; assay type: functional
Escherichia coli [12] = experiment: Antibacterial activity against Escherichia coli DSM-1116 assessed as minimum inhibitory concentration required for inhibition of bacterial growth in presence of outer membrane permeabilizer PMBN measured after 18 hrs by microdilution method; assay type: functional
Pseudomonas aeruginosa [13] = experiment: Antibacterial activity against Pseudomonas aeruginosa DSM-1128 assessed as minimum inhibitory concentration required for inhibition of bacterial growth measured after 18 hrs by microdilution method; assay type: functional
Klebsiella pneumoniae [14] = experiment: Antibacterial activity against Klebsiella pneumoniae DSM-30104 assessed as minimum inhibitory concentration required for inhibition of bacterial growth in presence of outer membrane permeabilizer PMBN measured after 18 hrs by microdilution method; assay type: functional
Staphylococcus aureus [15] = experiment: Antibacterial activity against Staphylococcus aureus DSM-346 assessed as minimum inhibitory concentration required for inhibition of bacterial growth measured after 18 hrs by microdilution method; assay type: functional

MIC (Klebsiella pneumoniae [3])	MIC (Pseudomonas aeruginosa [4])	MIC (Staphylococcus aureus [5])	MIC (Enterococcus faecium)	MIC (Pseudomonas aeruginosa [6])	MIC (Staphylococcus aureus [7])	Compound	other results
> 64 µg/mL	> 64 µg/mL	1 µg/mL (≈ 1.93 µM)	–	–	–	COc1ccc(-c2cc(C)c(O)c3c(O)c4c(c(C)c23)C[C@H]2[C@@H](N)C(O)=C(C(N)=O)C(=O)[C@@]2(O)C4=O)cc1	MIC (Escherichia coli [1]): 2 µg/mL; MIC (Escherichia coli [2]): 32 µg/mL (≈ 61.7 µM)
> 64 µg/mL	> 64 µg/mL	> 64 µg/mL	> 64 µg/mL	–	–	Cc1cc([N+](=O)[O-])c2c(C)c3c(c(O)c2c1O)C(=O)[C@]1(O)C(=O)C(C(N)=O)=C(O)[C@H](N)[C@@H]1C3	–
> 64 µg/mL	> 64 µg/mL	> 64 µg/mL	0.25 µg/mL (≈ 0.457 µM)	–	–	Cc1ccc2c(C)c3c(c(O)c2c1O)C(=O)[C@]1(O)C(=O)C(C(N)=O)=C(O)[C@H](NC(=O)OCc2ccccc2)[C@@H]1C3	–
> 64 µg/mL	> 64 µg/mL	1 µg/mL (≈ 1.81 µM)	–	–	–	Cc1ccc2c(C)c3c(c4c2c1O[Si](C(C)(C)C)(C(C)(C)C)O4)C(=O)[C@]1(O)C(=O)C(C(N)=O)=C(O)[C@H](N)[C@@H]1C3	MIC (Escherichia coli [1]): 8 µg/mL; MIC (Escherichia coli [2]): 64 µg/mL (≈ 116 µM)
64 µg/mL (≈ 130 µM)	> 64 µg/mL	2 µg/mL (≈ 4.06 µM)	–	> 64 µg/mL	–	Cc1ccc2c(C)c3c(c(O)c2c1O)C(=O)[C@]1(O)C(=O)C(C(N)=O)=C(O)[C@H](N2C(=O)C=CC2=O)[C@@H]1C3	MIC (Escherichia coli [1]): 8 µg/mL; MIC (Escherichia coli [2]): > 64 µg/mL
–	–	–	16 µg/mL (≈ 35.2 µM)	–	16 µg/mL (≈ 35.2 µM)	CC(=O)Oc1c(C)ccc2c(C)c3c(c(O)c12)C(=O)[C@]1(O)C(=O)C(C(N)=O)=C(O)[C@H](N)[C@@H]1C3	Stabilty [8]: Stable; Stabilty [9]: Stable; MIC (Pseudomonas aeruginosa [10]): 1 µg/mL; MIC (Escherichia coli [11]): 8 µg/mL (≈ 17.6 µM)
–	–	–	> 64 µg/mL	32 µg/mL (≈ 57.9 µM)	> 64 µg/mL	Cc1ccc2c(C)c3c(c(O)c2c1O)C(=O)[C@]1(O)C(=O)C(C(N)=O)=C(O)[C@H](NC(=O)CN2CCN(C)CC2)[C@@H]1C3	MIC (Escherichia coli [12]): 32 µg/mL; MIC (Escherichia coli [11]): 54 µg/mL (≈ 97.7 µM)
8 µg/mL (≈ 17.9 µM)	–	–	–	–	4 µg/mL (≈ 8.95 µM)	Cc1cc(Cl)c2c(C)c3c(c(O)c2c1O)C(=O)[C@]1(O)C(=O)C(C(N)=O)=C(O)[C@H](N)[C@@H]1C3	MIC (Pseudomonas aeruginosa [13]): 16 µg/mL (≈ 35.8 µM); MIC (Klebsiella pneumoniae [14]): 8 µg/mL
32 µg/mL (≈ 60.3 µM)	> 64 µg/mL	0.5 µg/mL (≈ 0.942 µM)	–	–	–	Cc1cc(C)c(-c2cc(C)c(O)c3c(O)c4c(c(C)c23)C[C@H]2[C@@H](N)C(O)=C(C(N)=O)C(=O)[C@@]2(O)C4=O)c(C)c1	MIC (Escherichia coli [1]): 8 µg/mL; MIC (Escherichia coli [2]): > 64 µg/mL
2 µg/mL	64 µg/mL	8 µg/mL	8 µg/mL	4 µg/mL	–	CC(=O)C1=C(O)[C@H](N)[C@@H]2Cc3c(c(O)c4c(O)c(C)ccc4c3C)C(=O)[C@]2(O)C1=O.O=C([O-])CC(O)(CC(=O)[O-])C(=O)[O-].[Na+].[Na+].[Na+]	MIC (Escherichia coli [11]): 2 µg/mL
> 64 µg/mL	> 64 µg/mL	4 µg/mL (≈ 7.32 µM)	–	64 µg/mL (≈ 117 µM)	–	COc1ccc(C(=O)N[C@H]2C(O)=C(C(N)=O)C(=O)[C@@]3(O)C(=O)c4c(c(C)c5ccc(C)c(O)c5c4O)C[C@@H]23)cc1	–
> 64 µg/mL	> 64 µg/mL	–	> 64 µg/mL	–	–	CN[C@H]1C(O)=C(C(N)=O)C(=O)[C@@]2(O)C(=O)c3c(c(C)c4ccc(C)c(O)c4c3O)C[C@@H]12	MIC (Staphylococcus aureus [15]): > 64 µg/mL
16 µg/mL (≈ 33 µM)	> 64 µg/mL	2 µg/mL (≈ 4.13 µM)	–	64 µg/mL (≈ 132 µM)	–	CCOC(=O)N[C@H]1C(O)=C(C(N)=O)C(=O)[C@@]2(O)C(=O)c3c(c(C)c4ccc(C)c(O)c4c3O)C[C@@H]12	–
8 µg/mL (≈ 18.6 µM)	8 µg/mL (≈ 18.6 µM)	4 µg/mL (≈ 9.29 µM)	–	4 µg/mL (≈ 9.29 µM)	–	Cc1cc(F)c2c(C)c3c(c(O)c2c1O)C(=O)[C@]1(O)C(=O)C(C(N)=O)=C(O)[C@H](N)[C@@H]1C3	–
> 64 µg/mL	> 64 µg/mL	> 64 µg/mL	32 µg/mL (≈ 65.2 µM)	–	–	Cc1ccc2c(C)c3c(c(O)c2c1O)C(=O)[C@]1(O)C(=O)C(C(N)=O)=C(O)[C@H](NS(C)(=O)=O)[C@@H]1C3	–
> 64 µg/mL	> 64 µg/mL	> 64 µg/mL	32 µg/mL (≈ 70.4 µM)	–	–	CC(=O)N[C@H]1C(O)=C(C(N)=O)C(=O)[C@@]2(O)C(=O)c3c(c(C)c4ccc(C)c(O)c4c3O)C[C@@H]12	–
8 µg/mL (≈ 16.3 µM)	–	–	–	–	8 µg/mL (≈ 16.3 µM)	Cc1cc(Br)c2c(C)c3c(c(O)c2c1O)C(=O)[C@]1(O)C(=O)C(C(N)=O)=C(O)[C@H](N)[C@@H]1C3	MIC (Pseudomonas aeruginosa [13]): 32 µg/mL (≈ 65.1 µM); MIC (Klebsiella pneumoniae [14]): 4 µg/mL
–	–	–	8 µg/mL (≈ 17.2 µM)	> 64 µg/mL	4 µg/mL (≈ 8.58 µM)	C=CC(=O)N[C@H]1C(O)=C(C(N)=O)C(=O)[C@@]2(O)C(=O)c3c(c(C)c4ccc(C)c(O)c4c3O)C[C@@H]12	MIC (Escherichia coli [12]): 2 µg/mL; MIC (Escherichia coli [11]): 32 µg/mL (≈ 68.6 µM)
> 64 µg/mL	–	–	–	–	32 µg/mL (≈ 75.1 µM)	CC1=CC(=O)c2c(C)c3c(c(O)c2C1=O)C(=O)[C@]1(O)C(=O)C(C(N)=O)=C(O)[C@H](N)[C@@H]1C3	MIC (Pseudomonas aeruginosa [13]): > 64 µg/mL; MIC (Klebsiella pneumoniae [14]): 64 µg/mL
> 64 µg/mL	> 64 µg/mL	–	> 64 µg/mL	–	–	Cc1ccc2c(C)c3c(c(O)c2c1O)C(=O)[C@]1(O)C(=O)C(C(N)=O)=C(O)[C@H](N(C)C)[C@@H]1C3	MIC (Staphylococcus aureus [15]): > 64 µg/mL
> 64 µg/mL	> 64 µg/mL	0.125 µg/mL (≈ 0.23 µM)	–	> 64 µg/mL	–	Cc1ccc2c(C)c3c(c(O)c2c1O)C(=O)[C@]1(O)C(=O)C(C(N)=O)=C(O)[C@H](N2C(=O)c4ccccc4C2=O)[C@@H]1C3	MIC (Escherichia coli [1]): 0.5 µg/mL; MIC (Escherichia coli [2]): > 64 µg/mL
–	–	–	4 µg/mL (≈ 6.72 µM)	–	4 µg/mL (≈ 6.72 µM)	Cc1ccc2c(C)c3c(c(O)c2c1OC(=O)c1ccc(Br)cc1)C(=O)[C@]1(O)C(=O)C(C(N)=O)=C(O)[C@H](N)[C@@H]1C3	Stabilty [8]: Stable; Stabilty [9]: Stable; MIC (Escherichia coli [12]): 64 µg/mL; MIC (Pseudomonas aeruginosa [10]): > 64 µg/mL; MIC (Escherichia coli [11]): > 64 µg/mL
–	–	–	> 64 µg/mL	32 µg/mL (≈ 66.2 µM)	64 µg/mL (≈ 132 µM)	Cc1ccc2c(C)c3c(c(O)c2c1O)C(=O)[C@]1(O)C(=O)C(C(N)=O)=C(O)[C@H](NC(=O)CCN)[C@@H]1C3	MIC (Escherichia coli [12]): 8 µg/mL; MIC (Escherichia coli [11]): 16 µg/mL (≈ 33.1 µM)
2 µg/mL	16 µg/mL	8 µg/mL	4 µg/mL	0.5 µg/mL	–	Cc1ccc2c(C)c3c(c(O)c2c1O)C(=O)[C@]1(O)C(=O)C(C(N)=O)=C(O)[C@H](N)[C@@H]1C3.O=C([O-])CC(O)(CC(=O)[O-])C(=O)[O-].[Na+].[Na+].[Na+]	Stabilty [8]: Unstable; Stabilty [9]: Unstable; MIC (Escherichia coli [11]): 0.5 µg/mL
